The supplement of paper PMC4862054

Columns and labels:
Test in all cases: normalised response (% of control), CellTiter-Glo; higher = more viable cells (100 = DMSO, 0 = benzethonium chloride kill control)
Conditions in all cases: incubation time: 72 h
[1] = tested on: CAL-148
Outline: (§1)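 A 20 µl suspension of breast cancer cells was seeded into each well of 384-well plates containing compound at 5 concentrations in 10-fold steps over a compound-specific 10,000-fold range. After 72 h incubation, CellTox Green fluorescence (485/520 nm) was read first, and CellTiter-Glo luminescence was read after 10 min at room temperature. Each plate was normalised against 0.1 % DMSO (100) and a positive kill control (0), and each value is the normalised signal at one concentration.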

[2] = tested on: BT-474
Outline: as §1

[3] = tested on: HCC1599
Outline: as §1

[4] = tested on: MFM-223
Outline: as §1

[5] = tested on: BT-549
Outline: as §1

[6] = tested on: CAL-85-1
Outline: as §1

[7] = tested on: HCC1937
Outline: as §1

[8] = tested on: MDA-MB-231
Outline: as §1

[9] = tested on: MDA-MB-436
Outline: as §1

[10] = tested on: MCF-10A
Outline: as §1

[11] = tested on: SK-BR-3
Outline: as §1

[12] = tested on: HDQ-P1
Outline: as §1

[13] = tested on: Hs578T
Outline: as §1

[14] = tested on: CAL-51
Outline: as §1

[15] = tested on: MDA-MB-468
Outline: as §1

[16] = tested on: MDA-MB-453
Outline: as §1

[17] = tested on: CAL-120
Outline: as §1

[18] = tested on: DU-4475
Outline: as §1

[19] = tested on: HCC1143
Outline: as §1

SMILES | normalised response [1] | normalised response [2] | normalised response [3] | normalised response [4] | normalised response [5] | normalised response [6] | normalised response [7] | normalised response [8] | normalised response [9] | normalised response [10] | normalised response [11] | normalised response [12] | normalised response [13] | normalised response [14] | normalised response [15] | normalised response [16] | normalised response [17] | normalised response [18] | normalised response [19]
C=CCc1cccc(/C=N/NC(=O)CN2CCN(Cc3ccccc3)CC2)c1O [PAC-1] (10 nM) | 107% | 98.4% | 112% | 110% | 97.7% | 100% | 103% | 100% | 98.3% | 112% | 107% | 98.9% | 103% | 108% | 111% | 104% | 94.6% | 106% | 100%
Nc1nc2[nH]cc(CCc3ccc(C(=O)N[C@@H](CCC(=O)O)C(=O)O)cc3)c2c(=O)[nH]1 [Pemetrexed] (1 nM) | 98.9% | 97.8% | 85.1% | 92.6% | 105% | 94.2% | 96.8% | 97.4% | 98.7% | 95.7% | 101% | 105% | 101% | 90% | 99% | 101% | 106% | 95.1% | 91.6%
Nc1nc2[nH]cc(CCc3ccc(C(=O)N[C@@H](CCC(=O)O)C(=O)O)cc3)c2c(=O)[nH]1 [Pemetrexed] (10 nM) | 98% | 98.2% | 88.7% | 94.9% | 108% | 97.5% | 104% | 96.9% | 91.3% | 100% | 97.1% | 99.5% | 98.5% | 73.3% | 93.9% | 92.8% | 105% | 95.3% | 106%
CC[C@H](C)C(=O)O[C@H]1C[C@H](O)C=C2C=C[C@H](C)[C@H](CC[C@@H](O)C[C@@H](O)CC(=O)O)[C@H]21 [Pravastatin] (1 nM) | 87.5% | 99.6% | 117% | 93.1% | 102% | 92.6% | 97.6% | 102% | 99.6% | 96% | 94.2% | 103% | 101% | 104% | 99.9% | 99.8% | 101% | 95.5% | 95.1%
CC[C@H](C)C(=O)O[C@H]1C[C@H](O)C=C2C=C[C@H](C)[C@H](CC[C@@H](O)C[C@@H](O)CC(=O)O)[C@H]21 [Pravastatin] (10 nM) | 98.7% | 98.1% | 88.5% | 92.3% | 92.2% | 104% | 95.4% | 99.1% | 97.7% | 102% | 95.6% | 106% | 100% | 128% | 104% | 85.2% | 105% | 91.5% | 97.3%
Cc1cnc(NC(=O)Nc2cc(Br)c(C)cc2OC[C@@H]2CNCCO2)cn1 [Rabusertib] (0.1 nM) | 112% | 109% | 88.5% | 103% | 103% | 107% | 101% | 104% | 106% | 109% | 111% | 102% | 102% | 108% | 101% | 114% | 107% | 109% | 103%
CNC(=O)c1cc(Oc2ccc(NC(=O)Nc3cc(C(C)(C)C)nn3-c3ccc4ncccc4c3)c(F)c2)ccn1 [Rebastinib] (0.1 nM) | 104% | 99.5% | 105% | 101% | 95.8% | 96.6% | 107% | 101% | 97.9% | 109% | 113% | 105% | 103% | 122% | 97.1% | 102% | 97.7% | 101% | 98.3%
CNC(=O)c1cc(Oc2ccc(NC(=O)Nc3cc(C(C)(C)C)nn3-c3ccc4ncccc4c3)c(F)c2)ccn1 [Rebastinib] (1 nM) | 109% | 98.8% | 102% | 100% | 93.8% | 99.5% | 97.6% | 94.7% | 99.5% | 109% | 104% | 100% | 103% | 123% | 96.3% | 93.5% | 99.1% | 98.8% | 104%
COc1cc([C@@H]2c3cc4c(cc3[C@@H](O[C@@H]3O[C@@H]5CO[C@@H](c6cccs6)O[C@H]5[C@H](O)[C@H]3O)[C@H]3COC(=O)[C@H]23)OCO4)cc(OC)c1O [Teniposide] (1 nM) | 102% | 99.3% | 107% | 96% | 103% | 99% | 106% | 94.1% | 96.9% | 106% | 101% | 96.4% | 106% | 125% | 95.9% | 91.8% | 95.8% | 99% | 100%
COc1cc2nccc(Oc3ccc(NC(=O)Nc4cc(C)on4)c(Cl)c3)c2cc1OC [Tivozanib] (1 nM) | 94.3% | 91.4% | 88.6% | 88.6% | 102% | 93% | 92.7% | 98.9% | 83.2% | 79% | 91.2% | 93.5% | 91% | 108% | 97.3% | 94.7% | 95.7% | 97.5% | 94.2%
COc1cc2nccc(Oc3ccc(NC(=O)Nc4cc(C)on4)c(Cl)c3)c2cc1OC [Tivozanib] (10 nM) | 82.1% | 89.9% | 98.2% | 87.2% | 100% | 93.5% | 98.7% | 98.5% | 94.2% | 90.3% | 80.7% | 100% | 94.3% | 85.4% | 93.5% | 91.7% | 97.4% | 99.1% | 99.9%
CC(=O)Nc1cccc(-n2c(=O)n(C3CC3)c(=O)c3c(Nc4ccc(I)cc4F)n(C)c(=O)c(C)c32)c1 [Trametinib] (0.025 nM) | 111% | 111% | 101% | 100% | 94.9% | 102% | 96.5% | 104% | 100% | 96.3% | 110% | 98.6% | 99.5% | 115% | 99.4% | 109% | 106% | 99.2% | 95.5%
CC(=O)Nc1cccc(-n2c(=O)n(C3CC3)c(=O)c3c(Nc4ccc(I)cc4F)n(C)c(=O)c(C)c32)c1 [Trametinib] (0.25 nM) | 111% | 109% | 99.7% | 109% | 92.7% | 98.6% | 99.2% | 107% | 104% | 82.5% | 105% | 108% | 94.7% | 122% | 98.8% | 100% | 102% | 96.3% | 99.1%
CC1=C(/C=C/C(C)=C/C=C/C(C)=C/C(=O)O)C(C)(C)CCC1 [Tretinoin] (1 nM) | 102% | 102% | 92% | 99.2% | 104% | 98.5% | 106% | 101% | 107% | 105% | 107% | 98.7% | 102% | 102% | 102% | 97.1% | 98.7% | 101% | 99.5%
CC1=C(/C=C/C(C)=C/C=C/C(C)=C/C(=O)O)C(C)(C)CCC1 [Tretinoin] (10 nM) | 97.8% | 96.6% | 102% | 103% | 96.9% | 100% | 98% | 101% | 94.1% | 83.7% | 97% | 94.4% | 97.7% | 81% | 97.7% | 94.7% | 93.2% | 98.5% | 95.8%
COc1cc2c(NC3CCN(C(C)C)CC3)nc(C3CCCCC3)nc2cc1OCCCN1CCCC1 [UNC0638] (1 nM) | 86.8% | 91.1% | 76.7% | 87.1% | 103% | 97.4% | 95.3% | 93.3% | 90% | 84.2% | 90.8% | 103% | 99.7% | 117% | 90.5% | 95.6% | 104% | 88.9% | 94.6%
COc1cc2c(NC3CCN(C(C)C)CC3)nc(C3CCCCC3)nc2cc1OCCCN1CCCC1 [UNC0638] (10 nM) | 90.8% | 94.2% | 82.1% | 88% | 98.4% | 93.3% | 96.6% | 92.5% | 94.8% | 83% | 85.9% | 95.6% | 99.7% | 116% | 88.2% | 85.3% | 98% | 90.4% | 102%
Oc1ncc(N(CCCl)CCCl)c(O)n1 [Uracil mustard] (1 nM) | 101% | 105% | 105% | 101% | 89.4% | 94.2% | 103% | 97.2% | 95.8% | 105% | 99.7% | 98.8% | 99.7% | 115% | 107% | 105% | 98.6% | 95.6% | 102%
CCCCC(=O)OCC(=O)[C@]1(O)Cc2c(O)c3c(c(O)c2[C@@H](O[C@H]2C[C@H](NC(=O)C(F)(F)F)[C@H](O)[C@H](C)O2)C1)C(=O)c1c(OC)cccc1C3=O [Valrubicin] (0.5 nM) | 94% | 104% | 97.2% | 102% | 97.1% | 98.2% | 98.3% | 99.6% | 98.4% | 111% | 97.9% | 101% | 96% | 87.8% | 99.1% | 94.2% | 95.2% | 99.8% | 102%
CCCS(=O)(=O)Nc1ccc(F)c(C(=O)c2c[nH]c3ncc(-c4ccc(Cl)cc4)cc23)c1F [Vemurafenib] (1 nM) | 84.2% | 97.2% | 95.6% | 88% | 95% | 98% | 91.5% | 95.9% | 88% | 82.1% | 86.9% | 89.6% | 95.3% | 92.5% | 95% | 83.4% | 92.4% | 96.7% | 85.1%
